Earlier results, collected in patent publication US20230041069A1, “ELECTROLYTE FOR ELECTROCHEMICAL GAS SENSOR AND ELECTROCHEMICAL GAS SENSOR INCLUDING THE SAME” (Samsung Electronics Co., Ltd., priority 2021, published 2023).

In the case of CCn1cc[n+](C)c1.N#C[N-]C#N [compound 6, 1-Ethyl-3-methylimidazolium dicyanamide], the “pKa of an anion's conjugate acid” value is given as 5.
